PubChem BioAssay (NCI)
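Method: 48-hour compound exposure of cells in 96-well plates, five concentrations, linear interpolation of endpoints. TGI: concentration producing complete growth inhibition.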

How the values were obtained:
Assay in all cases: growth of human tumour cells (NCI), 48 h
[1] = system: 786-0 renal
[2] = system: A498 renal
[3] = system: A549 NSCLC
[4] = system: ACHN renal
[5] = system: CCRF-CEM leukemia
[6] = system: COLO 205 colon
[7] = system: DLD-1 colon
[8] = system: DMS 114 small cell lung
[9] = system: DMS 273 small cell lung
[10] = system: EKVX NSCLC
[11] = system: HCC-2998 colon
[12] = system: HCT-116 colon
[13] = system: HCT-15 colon
[14] = system: HL-60(TB) leukemia
[15] = system: HOP-18 NSCLC
[16] = system: HOP-62 NSCLC
[17] = system: HOP-92 NSCLC
[18] = system: HT29 colon
[19] = system: IGROV1 ovarian
[20] = system: K-562 leukemia
[21] = system: KM12 colon
[22] = system: KM20L2 colon
[23] = system: LOX IMVI melanoma
[24] = system: LXFL 529 NSCLC
[25] = system: M14 melanoma
[26] = system: M19-MEL melanoma
[27] = system: MALME-3M melanoma
[28] = system: MOLT-4 leukemia
[29] = system: NCI-H226 lung
[30] = system: NCI-H23 lung
[31] = system: NCI-H460 lung
[32] = system: NCI-H522 lung
[33] = system: OVCAR-3 ovarian
[34] = system: OVCAR-4 ovarian
[35] = system: OVCAR-5 ovarian
[36] = system: OVCAR-8 ovarian
[37] = system: RPMI-8226 leukemia
[38] = system: RXF 393 renal
[39] = system: SF-268 CNS
[40] = system: SF-295 CNS
[41] = system: SF-539 CNS
[42] = system: SK-MEL-2 melanoma
[43] = system: SK-MEL-28 melanoma
[44] = system: SK-MEL-5 melanoma
[45] = system: SK-OV-3 ovarian
[46] = system: SN12C renal
[47] = system: SNB-19 CNS
[48] = system: SNB-75 CNS
[49] = system: SNB-78 CNS
[50] = system: SW-620 colon
[51] = system: TK-10 renal
[52] = system: U251 CNS
[53] = system: UACC-257 melanoma
[54] = system: UACC-62 melanoma
[55] = system: UO-31 renal
[56] = system: CAKI-1 renal
[57] = system: XF 498 CNS
[58] = system: BT-549 breast
[59] = system: DU-145 prostate
[60] = system: HS 578T breast
[61] = system: MCF7 breast
[62] = system: MDA-MB-231 breast
[63] = system: MDA-MB-435
[64] = system: MDA-N
[65] = system: NCI/ADR-RES ovarian
[66] = system: PC-3 prostate
[67] = system: SR leukemia
[68] = system: T-47D breast

Cc1cc(=O)[nH]c(CNC(=O)c2cccc(C(=O)NCc3cc(=O)[nH]c(C)n3)c2)n1
TGI [1]: > 100 µM
TGI [2]: > 100 µM
TGI [3]: > 100 µM
TGI [4]: > 100 µM
TGI [5]: > 100 µM
TGI [6]: > 100 µM
TGI [7]: > 100 µM
TGI [8]: > 100 µM
TGI [9]: > 100 µM
TGI [10]: > 100 µM
TGI [11]: > 100 µM
TGI [12]: > 100 µM
TGI [13]: > 100 µM
TGI [14]: > 100 µM
TGI [15]: > 100 µM
TGI [16]: > 100 µM
TGI [17]: > 100 µM
TGI [18]: > 100 µM
TGI [19]: > 100 µM
TGI [20]: > 100 µM
TGI [21]: > 100 µM
TGI [22]: > 100 µM
TGI [23]: > 100 µM
TGI [24]: > 100 µM
TGI [25]: > 100 µM
TGI [26]: > 100 µM
TGI [27]: > 100 µM
TGI [28]: > 100 µM
TGI [29]: > 100 µM
TGI [30]: > 100 µM
TGI [31]: > 100 µM
TGI [32]: > 100 µM
TGI [33]: > 100 µM
TGI [34]: > 100 µM
TGI [35]: > 100 µM
TGI [36]: > 100 µM
TGI [37]: > 100 µM
TGI [38]: > 100 µM
TGI [39]: > 100 µM
TGI [40]: > 100 µM
TGI [41]: > 100 µM
TGI [42]: > 100 µM
TGI [43]: > 100 µM
TGI [44]: > 100 µM
TGI [45]: > 100 µM
TGI [46]: > 100 µM
TGI [47]: > 100 µM
TGI [48]: > 100 µM
TGI [49]: > 100 µM
TGI [50]: > 100 µM
TGI [51]: > 100 µM
TGI [52]: > 100 µM
TGI [53]: > 100 µM
TGI [54]: > 100 µM
TGI [55]: > 100 µM

CCOC(=O)/C(=C/c1ccc(N(CCC#N)CCC#N)cc1C)NC(=O)/C=C/c1ccccc1
TGI [1]: > 100 µM
TGI [2]: > 100 µM
TGI [3]: > 100 µM
TGI [4]: > 100 µM
TGI [56]: > 100 µM
TGI [5]: > 100 µM
TGI [6]: > 100 µM
TGI [7]: > 100 µM
TGI [8]: > 100 µM
TGI [9]: > 100 µM
TGI [10]: > 100 µM
TGI [11]: > 100 µM
TGI [12]: > 100 µM
TGI [13]: > 100 µM
TGI [14]: > 100 µM
TGI [16]: > 100 µM
TGI [18]: > 100 µM
TGI [19]: > 100 µM
TGI [20]: > 100 µM
TGI [21]: > 100 µM
TGI [22]: > 100 µM
TGI [23]: > 100 µM
TGI [24]: > 100 µM
TGI [25]: > 100 µM
TGI [26]: > 100 µM
TGI [27]: > 100 µM
TGI [28]: > 100 µM
TGI [29]: > 100 µM
TGI [30]: > 100 µM
TGI [31]: > 100 µM
TGI [32]: > 100 µM
TGI [33]: > 100 µM
TGI [35]: > 100 µM
TGI [36]: > 100 µM
TGI [37]: > 100 µM
TGI [38]: > 100 µM
TGI [39]: > 100 µM
TGI [40]: > 100 µM
TGI [41]: > 100 µM
TGI [42]: > 100 µM
TGI [43]: > 100 µM
TGI [44]: > 100 µM
TGI [45]: > 100 µM
TGI [46]: > 100 µM
TGI [47]: > 100 µM
TGI [48]: > 100 µM
TGI [49]: > 100 µM
TGI [50]: > 100 µM
TGI [51]: > 100 µM
TGI [52]: > 100 µM
TGI [53]: > 100 µM
TGI [54]: > 100 µM
TGI [55]: > 100 µM
TGI [57]: > 100 µM

C=CCc1cc(C(Cc2ccccc2)NC(C)C)cc(OCc2ccccc2)c1OCc1ccccc1 (stereo not given)
TGI [1]: 30.7 µM
TGI [2]: 29.2 µM
TGI [3]: 30.5 µM
TGI [4]: 30.5 µM
TGI [58]: 31.4 µM
TGI [56]: 29.5 µM
TGI [5]: 33.5 µM
TGI [6]: 31.3 µM
TGI [59]: 29.7 µM
TGI [10]: 30 µM
TGI [11]: 26.7 µM
TGI [12]: 31.2 µM
TGI [13]: 30.7 µM
TGI [14]: 34.7 µM
TGI [16]: 30.3 µM
TGI [17]: 25.3 µM
TGI [60]: 37.1 µM
TGI [18]: 28.6 µM
TGI [19]: 29.9 µM
TGI [20]: 40.9 µM
TGI [21]: 40.2 µM
TGI [23]: 31.7 µM
TGI [25]: 28.8 µM
TGI [27]: 28.9 µM
TGI [61]: 32 µM
TGI [62]: 28.3 µM
TGI [63]: 29.2 µM
TGI [64]: 25.8 µM
TGI [28]: 26.7 µM
TGI [29]: 36.2 µM
TGI [30]: 33.8 µM
TGI [31]: 28.5 µM
TGI [32]: 28.8 µM
TGI [65]: 30.7 µM
TGI [33]: 30.4 µM
TGI [34]: 33.1 µM
TGI [35]: 33.2 µM
TGI [36]: 31.5 µM
TGI [66]: 28.8 µM
TGI [37]: 30.9 µM
TGI [38]: 30.4 µM
TGI [39]: 30 µM
TGI [40]: 31.6 µM
TGI [41]: 29 µM
TGI [42]: 33.4 µM
TGI [43]: 30.2 µM
TGI [44]: 30.6 µM
TGI [45]: 27 µM
TGI [46]: 29.4 µM
TGI [47]: 28.8 µM
TGI [48]: 26.2 µM
TGI [67]: 28.5 µM
TGI [50]: 32.5 µM
TGI [68]: 29.2 µM
TGI [51]: 30.8 µM
TGI [52]: 27.7 µM
TGI [53]: 34.4 µM
TGI [54]: 28.4 µM
TGI [55]: 21.7 µM

Cn1c(=O)c2[nH]cnc2n(CC(N)=O)c1=O
TGI [1]: > 100 µM
TGI [2]: > 100 µM
TGI [3]: > 100 µM
TGI [4]: > 100 µM
TGI [56]: > 100 µM
TGI [5]: > 100 µM
TGI [6]: > 100 µM
TGI [7]: > 100 µM
TGI [8]: > 100 µM
TGI [9]: > 100 µM
TGI [10]: > 100 µM
TGI [12]: > 100 µM
TGI [13]: > 100 µM
TGI [16]: > 100 µM
TGI [17]: > 100 µM
TGI [18]: > 100 µM
TGI [19]: > 100 µM
TGI [20]: > 100 µM
TGI [21]: > 100 µM
TGI [24]: > 100 µM
TGI [25]: > 100 µM
TGI [26]: > 100 µM
TGI [27]: > 100 µM
TGI [28]: > 100 µM
TGI [30]: > 100 µM
TGI [31]: > 100 µM
TGI [32]: > 100 µM
TGI [33]: > 100 µM
TGI [36]: > 100 µM
TGI [37]: > 100 µM
TGI [39]: > 100 µM
TGI [41]: > 100 µM
TGI [42]: > 100 µM
TGI [43]: > 100 µM
TGI [44]: > 100 µM
TGI [45]: > 100 µM
TGI [46]: > 100 µM
TGI [47]: > 100 µM
TGI [48]: > 100 µM
TGI [49]: > 100 µM
TGI [67]: > 100 µM
TGI [50]: > 100 µM
TGI [51]: > 100 µM
TGI [52]: > 100 µM
TGI [54]: > 100 µM
TGI [55]: > 100 µM
TGI [57]: > 100 µM
